Experimental data taken from patent publication EP1683515A2, “Bismuth-containing compounds in topical dosage forms” (Josman Laboratories, Inc., priority 1995, dated 1997).

Experiments:
[1] = tested on: Campylobacter rectus; assay: In vitro MIC against halitosis bacteria; format: cell-based
[2] = four hour exposure; 0.5% in artificial saliva; mild agitation
Text: Artificial saliva was used (Table 9). Table 9 THECOMPOSITION OF ARTIFICIAL SALIVA
Table 10 DENTURE MATERIALS

[3] = tested on: Treponema denticola; assay: In vitro MIC against halitosis bacteria; format: cell-based
[4] = tested on: rat mesentery culture; assay: In vitro mesentery culture model, wound closure; format: cell-based; details: for concentrations of growth factors EGF and FGF: 10 mcg/mL to 1,000 mcg/mL in medium with 2% fetal calf serum; for wound closure rate: 10 mcg/mL to 1,000 mcg/mL, 24-hour, 48-hour and 72-hour, compared to the placebo
Text: This tissue culture model is useful for gaining insights into growth factor interactions and wound healing.

[5] = tested on: Helicobacter pylori; assay: In vitro MIC against halitosis bacteria; format: cell-based
[6] = of the 13 adverse reaction forms, 1978 to 1986; cited from earlier work
[7] = tested on: H. Pylori; details: against H. Pylori; cited from earlier work
[8] = Diabetic mouse wound healing model; format: in vivo; details: 10 mcg/mL to 1,000 mcg/mL; compared to placebo treated wound
Experimental: Further, wound healing potential of the above bismuth compounds is evaluated using a diabetic mouse wound healing model (Matuszewska et al., Pharmaceutical Research 11(1):65-71 (1994), incorporated herein by reference).

[9] = Freeze-injured skin graft model; format: in vivo; details: 10 to 1000 mcg/mL; compared to placebo
[10] = tested on: H. Pylori; details: as a single agent; cited from earlier work

colloidal bismuth subcitrate [CBS]
MIC [1]: 256 µg/mL | staining, discoloration, or changes in texture of natural tooth and other denture materials [2]: did not cause any staining, discoloration, or changes in texture | MIC [3]: 32 µg/mL | concentrations of growth factors EGF and FGF [4]: Significantly higher | wound closure rate [4]: significantly faster wound closure rate and complete closure | MIC [5]: 2 µg/mL | adverse reactions ascribed to CBS [6]: Five | MIC range [7]: 4 to 32 µg/mL | minimum inhibitory concentration (MIC) [7]: 8 µg/mL | wound healing [8]: heal faster | wound healing in cryoinjured grafts [9]: stimulates wound healing in cryoinjured grafts in a dose-related fashion

Bismuth Ascorbyl Sulfate
MIC [1]: 256 µg/mL | MIC [3]: 16 µg/mL | concentrations of growth factors EGF and FGF [4]: Significantly higher | wound closure rate [4]: significantly faster wound closure rate and complete closure | MIC [5]: 8 µg/mL | wound healing [8]: heal faster | wound healing in cryoinjured grafts [9]: stimulates wound healing in cryoinjured grafts in a dose-related fashion

Bismuth Sucrose Sulfate
MIC [1]: > 256 µg/mL | MIC [3]: 32 µg/mL | MIC [5]: 16 µg/mL

Cc1ncc([N+](=O)[O-])n1CCO [metronidazole]
eradication rate for H. Pylori [10]: 5%
